# Experimental data as given in PubChem BioAssay (NCI).
#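 Five compound concentrations were applied to cells in 96-well plates for 48 hours; endpoints were derived by simple linear interpolation of the resulting dose-response curve. TGI is the concentration that stops growth completely.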
# Key:
# Experiment in all cases: NCI tumour cell line growth inhibition, 48 h
# HL-60(TB) leukemia = tested on: HL-60(TB) leukemia
# SN12K1 renal = tested on: SN12K1 renal
# KM20L2 colon = tested on: KM20L2 colon
# MCF7 breast = tested on: MCF7 breast
# OVCAR-5 ovarian = tested on: OVCAR-5 ovarian
# DLD-1 colon = tested on: DLD-1 colon
# DMS 273 small cell lung = tested on: DMS 273 small cell lung
# XF 498 CNS = tested on: XF 498 CNS
# SNB-78 CNS = tested on: SNB-78 CNS
# NCI-H23 lung = tested on: NCI-H23 lung
# M19-MEL melanoma = tested on: M19-MEL melanoma
# DMS 114 small cell lung = tested on: DMS 114 small cell lung
# A498 renal = tested on: A498 renal
# UACC-257 melanoma = tested on: UACC-257 melanoma
# TK-10 renal = tested on: TK-10 renal
# HOP-18 NSCLC = tested on: HOP-18 NSCLC
Compound,TGI (HL-60(TB) leukemia),TGI (SN12K1 renal),TGI (KM20L2 colon),TGI (MCF7 breast),TGI (OVCAR-5 ovarian),TGI (DLD-1 colon),TGI (DMS 273 small cell lung),TGI (XF 498 CNS),TGI (SNB-78 CNS),TGI (NCI-H23 lung),TGI (M19-MEL melanoma),TGI (DMS 114 small cell lung),TGI (A498 renal),TGI (UACC-257 melanoma),TGI (TK-10 renal),TGI (HOP-18 NSCLC)
Cc1c2c(cc3c1[nH]c1ccccc13)C=NCC2,27.8 µM,14.4 µM,34.5 µM,8.7 µM,61 µM,33.1 µM,45.8 µM,12.6 µM,63.8 µM,82.4 µM,33 µM,12.9 µM,40.3 µM,19.6 µM,,
CCCCCC(=O)c1ccc2[nH]c3c(C)cc([N+](=O)[O-])c(C)c3c2c1,> 100 µM,,,,> 100 µM,,> 100 µM,> 100 µM,> 100 µM,> 100 µM,> 100 µM,> 100 µM,,> 100 µM,> 100 µM,
C=C1C[C@@H](O)C[C@@]2(C)C[C@@H]3OC(=O)C(=C)[C@@H]3C[C@H]12,5.94 µM,35.7 µM,25.4 µM,24.8 µM,28 µM,> 36.6 µM,20.5 µM,4.71 µM,37.3 µM,35.4 µM,> 100 µM,23.5 µM,36.8 µM,15.9 µM,,15.9 µM
COc1ccccc1-c1cc(=O)c2ccccc2[nH]1,> 100 µM,,> 100 µM,,,> 100 µM,> 100 µM,,> 100 µM,> 100 µM,> 100 µM,,,> 100 µM,> 100 µM,
CCOc1ccc(/C=C(\Cl)c2ccc(OC)c(OC)c2)cc1,> 100 µM,,40.1 µM,,,> 100 µM,> 100 µM,> 100 µM,> 100 µM,> 100 µM,> 100 µM,> 100 µM,> 100 µM,97.9 µM,,> 100 µM
COC1=C(N=[N+]=[N-])C(=O)c2ncccc2C1=O,3.98 µM,,33 µM,3.41 µM,33.8 µM,3.14 µM,25.7 µM,16.4 µM,12.7 µM,16.1 µM,3.8 µM,19.6 µM,30.9 µM,13 µM,20.4 µM,
CCOc1cc(NC(C)=O)ccc1C(=O)NN1C(=O)C(Oc2ccccc2)C1c1ccccc1 (stereo not given),> 100 µM,,,> 100 µM,> 100 µM,,,,,> 100 µM,,,> 100 µM,> 100 µM,> 100 µM,
CCCCCC(=O)N[C@@H](c1ccccc1)C(O)C(=O)OC1C[C@@]2(O)C(OC(=O)c3ccccc3)C3[C@](C)(C(=O)[C@H](O)C(=C1C)C2(C)C)C(OC1OCC(O)C(O)C1O)C[C@H]1OC[C@@]31OC(C)=O (stereo not given in full),7.79 µM,,,> 56.7 µM,> 100 µM,,,,,> 100 µM,,,> 100 µM,> 100 µM,> 100 µM,
O=c1[nH]nc(-c2ccccc2)n1/N=C/c1c[nH]c2ccccc12,> 100 µM,,,> 100 µM,> 100 µM,,,,,> 100 µM,,,> 100 µM,> 100 µM,75.6 µM,
Cc1ccc(N=Nc2c(O)ccc3cc(S(=O)(=O)O)ccc23)c(C)c1,> 100 µM,,,> 100 µM,> 100 µM,,,,,> 100 µM,,,> 100 µM,> 100 µM,> 100 µM,
O=C1O/C(=C(\Br)c2cccc3ccccc23)c2ccccc21,47.7 µM,,> 59.5 µM,,> 54.9 µM,> 66.7 µM,> 54.9 µM,,> 100 µM,> 55.8 µM,> 58.5 µM,> 48.4 µM,34.6 µM,> 56.1 µM,> 51.2 µM,36.4 µM
